# Results taken from patent US20240398833A1, “PHARMACEUTICAL COMPOSITION CONTAINING 27-HYDROXYCHOLESTEROL FOR PREVENTING OR TREATING MYELOID LEUKEMIA” (PUSAN NATIONAL UNIVERSITY INDUSTRY-UNIVERSITY COOPERATION …, priority 2021, published 2024).
# “Also recorded” adds a separate entry of the source.
# How the values were obtained:
# [1] = system: myeloid leukemia cells (HL60, KG1a, K562 cells); assay: Apoptosis (Annexin V / 7AAD, FACS) in leukemia cell lines; type: cell-based; conditions: 6.2 μM, 48 hours, compared to control cells
# Method: (§1) Acute myeloid leukemia cell lines HL60 and KG1 α, and chronic myeloid leukemia cell line, K562 cells were treated with 6.2 μM of 27-hydroxycholesterol for 48 hours and then strained with trypan blue, and then the cell count was confirmed. In addition, the cells were added with Annexin V and 7AAD, and the apoptosis was analyzed using FACScanto2 equipment. As a result, it was confirmed that compared to untreated cells (Con) and a cholesterol-treated leukemia cell line (Chol), 27-hydroxycholesterol increased the apoptosis in a leukemia cell line (27HC) to reduce the number of cells, which was illustrated in FIG. 3 [Con: untreated leukemia cell line, Chol: leukemia cell line treated with cholesterol, 27HC: leukemia cell line treated with 27-hydroxycholesterol].
# [2] = system: ER stress response pathway; assay: Western blot of ER stress proteins (pIRE1α, IRE1α, PERK, ATF4, elF2α); type: cell-based
# [3] = system: myeloid leukemia cells (HL60, KG1a, K562 cells); assay: ROS (DCFDA staining) in leukemia cell lines; type: cell-based; conditions: compared to control cells
# Method: (§2) Next, the apoptosis and the ROS proportions were analyzed through DCFDA staining. In addition, to confirm the effect of 27-Hydroxycholesterol on the differentiation of leukemia cell lines, a differentiation marker, CD11b was stained and analyzed using FACScanto 2 equipment. As a result, it was confirmed that the ROS proportion was high in the leukemia cell line treated with 27-hydroxycholesterol, which was illustrated in FIG. 4 [Con: untreated leukemia cell line, Chol: leukemia cell line treated with cholesterol, 27HC: leukemia cell line treated with 27-hydroxycholesterol].
# [4] = system: HL60 cells and K562 cells; assay: Leukemia cell growth comparison, cell count by trypan blue; type: cell-based; conditions: 6.2 μM, 48 hours; for number of cells in leukemia cell lines: HL60 and K562
# Method: An acute myeloid leukemia cell line HL60, and a chronic myeloid leukemia cell line, K562 cells were treated with 6.2 μM of cholesterol, 7α-hydroxycholesterol, and 27-hydroxycholesterol for 48 hours and then strained with trypan blue, and then the cell count was confirmed.
# [5] = system: LKS cells and hematopoietic progenitor cells (HPC); assay: qRT-PCR gene expression in sorted LKS cells and hematopoietic progenitor cells; type: cell-based, mouse; conditions: 6.2 μM, 48 hours
# Method: Bone marrow cells were extracted from the mouse tibia and femur and treated with 6.2 μM of 27-hydroxycholesterol for 48 hours. After treatment, the cells were added with PE-Cy5-CD3, PE-Cy5-CD4, PE-Cy5-CD8, PE-Cy5-CD19, PE-Cy5-B220, PE-Cy5-GR1, PE-Cy5-Ter119, PE-Sca1, APC-Add cKit, PE-Cy7-CD150, and APC-Cy7-CD48 antibodies, stained for 30 minutes at 4° C., and then LKS (Lin-Sca1^+cKit^+) and hematopoietic progenitor cells (Lin^−Sca1^+cKit^+CD48^+) were separated using FACSAria. Thereafter, RNA was extracted from the cells using an RNA extraction kit, and cDNA was synthesized from RNA using a cDNA synthesis kit. The synthesized cDNA was subjected to qRT-PCR using primers related to apoptosis and ER stress and SYBR-green. As a result, it was confirmed that gene expression related to apoptosis and ER stress was increased according to treatment of 27-hydroxycholesterol in LKS and hematopoietic progenitor cells, which were immature cells, compared to total bone marrow cells, as illustrated in FIG. 6.
# [6] = system: myeloid leukemia cells (HL60, KG1a, and K562 cells); assay: Leukemia cell count by trypan blue; type: cell-based; conditions: 6.2 μM, 48 hours; negative control HEK293T cells
# Method: as §1
# [7] = system: hematopoietic stem and progenitor cells (HSPC); type: cell-based, mouse
# Method: The bone marrow was extracted from the mouse tibia and femur using an FACS staining buffer (phosphate-buffered saline, 2% FBS, penicillin/streptomycin), and then bone marrow cells were extracted by lysing red blood cells using an ACK lysis buffer and treated with 0.62 μM or 6.2 μM 27-hydroxycholesterol for 24 or 48 hours. After treatment, antibodies were attached and the cells were analyzed using FACSCanto2 equipment. As a result, the effect of 27-hydroxycholesterol on decreased hematopoietic stem and progenitor cells (HSPC) was confirmed, and illustrated in FIGS. 1 and 11 [Con: untreated mouse bone marrow cells, Chol: mouse bone marrow cells treated with cholesterol, 27HC: mouse bone marrow cells treated with 27-hydroxycholesterol].
# [8] = system: hematopoietic stem and progenitor cells (HSPC); assay: Apoptosis (Annexin V / 7AAD, FACS) in mouse bone marrow cells; type: cell-based; conditions: 6.2 μM, 48 hours, compared to control cells
# Method: (§3) Bone marrow cells were extracted from the mouse tibia and femur and treated with 6.2 μM of 27-hydroxycholesterol for 48 hours. In order to confirm apoptosis, the cells treated with 27-hydroxycholesterol were collected, the cells were dissolved in a 1× Annexin binding buffer, added with Annexin V and 7AAD, and analyzed using FACScanto2 equipment, and in order to confirm reactive oxygen species, the cells were dissolved in an FACS staining buffer, added with DCFDA, stained at 37° C. for 30 minutes, and analyzed using FACScanto2 equipment. As a result, an effect of 27-hydroxycholesterol on increased apoptosis and reactive oxygen species (ROS) in hematopoietic stem and progenitor cells (HSPC) was confirmed and illustrated in FIG. 2 [Con or Ctrl: mouse bone marrow cells untreated, Chol: mouse bone marrow cells treated with cholesterol, 27HC: mouse bone marrow cells treated with 27-hydroxycholesterol].
# hematopoietic stem cells = assay: Bone marrow transplantation of ex vivo treated donor CD45.1 bone marrow cells; type: in vivo, mouse
# Method: Bone marrow cells were taken out ex vivo, treated with 6.2 μM of 27-hydroxycholesterol (27-HC), and then subjected to bone marrow transplantation.
# Specifically, referring to FIG. 9A, BM cells were extracted from the tibia and femur of a donor CD45.1 mouse, and then treated with vehicle, 6.2 μM cholesterol, and 6.2 μM 27-hydroxycholesterol for 48 hours. Then, bone marrow transplantation was performed by mixing the bone marrow cells of the CD45.2 mouse in a 1:1 ratio and injecting the mixture into the caudal vein of a recipient CD45.2 mouse that had been irradiated with 4 Gy. One month later, blood was extracted from the veins of the recipient mouse that had received bone marrow transplantation, and the cell proportion of the donor mouse was analyzed. Blood was extracted from the mouse jugular vein and added in 10 mM EDTA to prevent blood coagulation, and added in an ACK lysis buffer to lyse red blood cells. It was confirmed that after attaching CD45.1-APC and CD45.2-FITC antibodies, donor mouse CD45.1 cells were analyzed using FACSCanto2 equipment, and 27-hydroxycholesterol suppressed the regeneration and proliferation of hematopoietic stem cells, as illustrated FIGS. 9A to 9E.
# [9] = system: hematopoietic stem and progenitor cells (HSPC); assay: Reactive oxygen species (DCFDA staining, FACS) in mouse bone marrow cells; type: cell-based
# Method: as §3
# [10] = system: myeloid leukemia cells (HL60, KG1a, K562 cells); assay: Differentiation marker CD11b staining in leukemia cell lines; type: cell-based; conditions: compared to control cells
# Method: as §2
smiles,measurement,setting,value
C[C@@H](CO)CCC[C@@H](C)[C@H]1CC[C@H]2[C@@H]3CC=C4C[C@@H](O)CC[C@]4(C)[C@H]3CC[C@]12C [27-hydroxycholesterol],apoptosis of myeloid leukemia cells,[1],increased
same,ER stress (amount of ER stress protein),"[2]; HL60 cells, 48 hours",increased
same,ER stress response pathway,"[2]; THP1 cells, FIG. 5A",increases
same,ROS proportion of myeloid leukemia cells,[3],increased and high
same,growth of leukemia cells (HL60 cells and K562 cells),[4]; FIG. 8A/8B,inhibited; also recorded: minimal; also recorded: suppressed
same,number of cells in leukemia cell lines,[4],decreased
same,gene expression related to apoptosis and ER stress,[5]; LKS and HPC compared to total bone marrow cells,increased
same,expression of Bax gene related to apoptosis,[5]; LKS cells and HPC,increased
same,"expression of Chop, Ire1α and Xbp1s genes related to ER stress",[5]; LKS cells and HPC,increased
same,expression of Era gene related to cancer cell growth,[5]; LKS cells and HPC,increased
same,number of myeloid leukemia cells (cell count),[6],reduce; also recorded: significantly decreased
same,cytotoxic effect (conclusion of Example 1),[7],cytotoxic effect specifically on hematopoietic stem and progenitor cells
same,"effect on LK, LKS, HPC, HSC, monocytes, neutrophils, B cells, T cells","[7]; 0.62 μM, 24 hours, FIG. 11B",no effect on all cells
same,"number of LK cells, LKS cells, HPC and HSC","[7]; BM cells treated for 24 hours or 48 hours, FIG. 11A",decreased
same,"proportions of LKS cells, hematopoietic progenitor cells and hematopoietic stem cells","[7]; BM cells treated with 27-hydroxycholesterol, FIG. 1A/1B",decreased
same,"proportions of common myeloid, granulocytic macrophage, megakaryocytic erythroid and common lymphocytic progenitor cells","[7]; BM cells, FIG. 1C/1D",decreased
same,"proportions of monocytes, neutrophils, B cells and T cells","[7]; BM cells, FIG. 1E/1F",no change
same,"proportions of LKS cells, HPC and HSC","[7]; Example 2, 6.2 μM, 48 hours, compared to control cells, FIG. 2F",decreased
same,cKit+ cells and CD48+ cells,[7]; FIG. 11C,reduces
same,"apoptosis in LKS cells, HPC and HSC",[8],increased
same,"proportions of donor monocytes, B cells and T cells in blood of recipient mouse","hematopoietic stem cells; 6.2 μM, 48 hours ex vivo, after transplantation, FIG. 9C",decreased
same,engraftment ability (donor CD45.1 cells) in bone marrow cells,"hematopoietic stem cells; 6.2 μM, 48 hours ex vivo, after transplantation, FIG. 9D",decreased
same,"proportions of donor LK cells, LKS cells, HPC and HSC in bone marrow cells of recipient mouse","hematopoietic stem cells; 6.2 μM, 48 hours ex vivo, after transplantation, FIG. 9E",decreased
same,engraftment ability (donor CD45.1 cells) in blood,"hematopoietic stem cells; 6.2 μM, 48 hours ex vivo, one month after transplantation, FIG. 9B",decreased
same,regeneration and proliferation of hematopoietic stem cells,"hematopoietic stem cells; donor BM cells treated ex vivo with 6.2 μM for 48 hours, then transplanted",suppressed
same,"ROS in LKS cells, HPC and HSC","[9]; 6.2 μM, 48 hours, compared to control cells",increased
same,differentiation (CD11b+) of myeloid leukemia cells,[10],increased
"CC(C)CCC[C@@H](C)[C@H]1CC[C@H]2[C@@H]3[C@H](O)C=C4C[C@@H](O)CC[C@]4(C)[C@H]3CC[C@]12C [7α-hydroxycholesterol, reference compound]",effect on chronic myeloid leukemia cells,[4],no effect
same,number of cells in leukemia cell lines,[4],did not have a significant effect
same,effect on acute myeloid leukemia cell lines,[4]; relative to 27-hydroxycholesterol,weaker effect
"CC(=O)N[C@@H](CS)C(=O)O [N-acetylcysteine, reference compound]","decreased proportions of LKS cells, HPC and HSC by 27-hydroxycholesterol, on treating NAC","[7]; 27-hydroxycholesterol plus antioxidant NAC, FIG. 2F",suppressed
same,"ROS in LKS cells, HPC and HSC treated with 27-hydroxycholesterol, on treating NAC","[9]; 27-hydroxycholesterol plus antioxidant NAC, FIG. 2E",increased
